Like-named read-outs stand apart in the source and are kept apart here.
Columns and labels:
[1] = test system: HIV-1 IIIb; assay: Antiviral assay in MT-2 cells; format: cell-based
Method: (§1) For the antiviral assay utilizing MT-2 and MT-4 cells, 50 μl of a 2× test concentration of 5-fold serially diluted compound in culture medium with 10% FBS was added to each well of a 96-well plate (9 concentrations) in triplicate. MT-2 and MT-4 cells were infected with HIV-1 IIIb at a multiplicity of infection (MOI) of 0.01 for 3 h. Fifty microliters of infected cell suspension in culture medium with 10% FBS (∼1.5 × 10^4 cells) then was added to each well containing 50 μl of diluted compound. The plates were then incubated at 37°C for 5 days. After 5 days of incubation, 100 μl of CellTiter-Glo reagent (Promega Biosciences, Inc., Madison, WI) was added to each well containing MT-2 or MT-4 cells. Cell lysis was carried out by incubation at room temperature for 10 min and chemiluminescence was read. For compound cytotoxicity assessment, the protocol was identical except that uninfected cells were used and compounds were serially diluted 3-fold.

[2] = Cytotoxicity assay in MT-2 cells; format: cell-based; conditions: human, uninfected MT-2 cells
Method: as §1

[3] = Cytotoxicity assay in MT-4 cells; format: cell-based; conditions: human, uninfected MT-4 cells
Method: as §1

[4] = test system: INSTI-resistant HIV-1 mutants (HXB2); assay: microbe, parasite or virus in culture; format: cell-based
[5] = test system: inhibitor-selected HIV-1 IIIb passages; assay: Phenotypic profile of selected HIV-1 passages; format: cell-based; conditions: Human immunodeficiency virus 1, IIIB
[6] = test system: Influenza A/PC/1/73; assay: microbe, parasite or virus in culture; format: cell-based; conditions: NHBE
[7] = test system: HRV (mixture of HRV1A, HRV14, HRV16); assay: microbe, parasite or virus in culture; format: cell-based; conditions: Human rhinovirus sp., H1-HeLa
[8] = test system: RSV strain A2; assay: microbe, parasite or virus in culture; format: cell-based, respiratory syncytial virus; conditions: human respiratory syncytial virus, HEp-2
[9] = test system: NRTI-, NNRTI- and PI-Resistant HIV-1 Mutants; assay: Antiviral activity against NRTI-, NNRTI- and PI-resistant HIV-1 mutants; format: cell-based; conditions: Human immunodeficiency virus 1; WT, Table S7
[10] = in vitro; conditions: human, 6 days
Description: Freshly isolated human peripheral blood mononuclear cells (PBMCs) were obtained from healthy volunteers (supplied by AllCells, Inc., Alameda, CA). Blood donors were negative for HIV-1, hepatitis B, and hepatitis C viral infections. CD4^+ T lymphocytes were isolated by negative selection using a magnetically labeled antibody cocktail ([sequence] Technologies Inc., Vancouver, Canada) and cultured in RPMI cell culture media (Life Technologies, Grand Island, NY) supplemented with 10% FBS. CD4^+ T cells were activated for 48 h at 37°C by addition of 1 μg/ml phytohemagglutinin (PHA; Sigma, St. Louis, MO) and 5 ng/ml interleukin-2 (IL-2; Roche Diagnostics, Indianapolis, IN). […] Human PBMCs were used for cytotoxicity assays after culturing for 48 h in either complete RPMI medium alone (resting conditions) or RPMI containing 1 μg/ml PHA and 5 ng/ml IL-2 (activated conditions).

[11] = in vitro; conditions: human, CC50 in Primary Human Hepatocytes
[12] = test system: HIV-1 IIIb; assay: microbe, parasite or virus in culture; conditions: Human immunodeficiency virus 1, IIIB, MT4
Method: Each compound series was prepared several times independently in quadruplicate to capture the variations in Hill slope associated with preparation of compound serial dilutions. The assay was performed in a 384-well format. MT-4 cells were infected in bulk at the same MOI as that described above, and the plates were developed with CellTiter-Glo reagent 5 days postinfection.

[13] = test system: HBV Production; assay: microbe, parasite or virus in culture; conditions: Hepatitis B virus
[14] = test system: HIV-1 IIIb; assay: HIV breakthrough selection in MT-2 cells; conditions: MT-2, HIV-1 IIIb; FTC 4× EC95, EVG 5× EC95, BIC and DTG 2.5× and 5× EC95; up to day 32
[15] = test system: HIV-1 BaL; conditions: primary CD4+ T-cells, 35 days, drug at tissue culture equivalent clinical Cmin (FTC 160 × EC50)
[16] = test system: HIV-2 CDC 310319; assay: Antiviral assay against HIV-2 isolate in fresh human PBMCs (RT endpoint); conditions: Human immunodeficiency virus 2, PBMC
[17] = test system: HIV-1 clinical isolates; assay: Antiviral assay against HIV-1 clinical isolates in fresh human PBMCs (RT endpoint)

O=C(NCc1c(F)cc(F)cc1F)c1cn2c(c(O)c1=O)C(=O)N1[C@H]3CC[C@H](C3)O[C@@H]1C2 [BIC, Bictegravir]
EC50 ([1]; Human immunodeficiency virus 1, IIIB, MT2, T-cell lines and primary human T lymphocytes, read-out: 50% effective concentrations): 1.5 to 2.4 nM
EC50 ([1]; Human immunodeficiency virus 1, MT2, 120 h, MT-2 cells, HIV-1 IIIb, 5 days, read-out: EC50): 1.5 ± 0.2 nM
CC50 at 5 days [2]: 10300 nM
CC50 at 5 days [3]: 3660 nM
EC50 ([4]; Human immunodeficiency virus 1, HXB2, IN mutant E92Q): 2 ± 0.8 nM
EC50 ([4]; Human immunodeficiency virus 1, HXB2, IN mutant E92Q/N155H): 2 ± 0.2 nM
EC50 ([4]; Human immunodeficiency virus 1, HXB2, IN mutant E138K/Q148K): 13.7 ± 1.2 nM
EC50 ([4]; Human immunodeficiency virus 1, HXB2, IN mutant G140S/Q148R): 3.1 ± 0.8 nM
EC50 ([4]; Human immunodeficiency virus 1, HXB2, IN mutant M50I (BIC/DTG selection)): 1.9 ± 0.3 nM
EC50 ([4]; Human immunodeficiency virus 1, HXB2, IN mutant M50I/R263K (BIC selection)): 4.2 ± 0.9 nM
EC50 ([4]; Human immunodeficiency virus 1, HXB2, IN mutant M50I/S119R/R263K (DTG selection)): 6.4 ± 1.6 nM
EC50 ([4]; Human immunodeficiency virus 1, HXB2, IN mutant N155H): 1.6 ± 0.4 nM
EC50 ([4]; Human immunodeficiency virus 1, HXB2, IN mutant N155H/Q148R): 7.1 ± 4.3 nM
EC50 ([4]; Human immunodeficiency virus 1, HXB2, IN mutant Q148R): 1 ± 0.3 nM
EC50 ([4]; Human immunodeficiency virus 1, HXB2, IN mutant R263K (BIC/DTG selection), Table 7): 3.2 ± 0.7 nM
EC50 ([4]; Human immunodeficiency virus 1, HXB2, IN mutant R263K, Table 6): 2.9 ± 0.7 nM
EC50 ([4]; Human immunodeficiency virus 1, HXB2, IN mutant S119R (DTG selection)): 2.7 ± 0.7 nM
EC50 ([4]; Human immunodeficiency virus 1, HXB2, IN mutant S119R/R263K (DTG selection)): 4.2 ± 1.3 nM
EC50 ([4]; Human immunodeficiency virus 1, HXB2, IN mutant S153Y (DTG selection)): 3.9 ± 0.7 nM
EC50 ([4]; Human immunodeficiency virus 1, HXB2, IN mutant S153Y/R263K (DTG selection)): 8.3 ± 1.4 nM
EC50 ([4]; Human immunodeficiency virus 1, HXB2, IN mutant Y143R): 1.8 ± 0.5 nM
EC50 ([4]; Human immunodeficiency virus 1, HXB2, WT (HXB2), Table 6, read-out: EC50): 1.6 ± 0.4 nM
EC50 ([4]; Human immunodeficiency virus 1, HXB2, WT (HXB2), Table 7, read-out: EC50): 1.5 ± 0.3 nM
cross-resistance to single-mutant HIV-1 variants ([4]; {}): 1-2 fold
EC50 ([5]; 480 h, selected virus EVG P2 (day 20, 7.2 nM)): 5.8 nM
EC50 ([5]; HIV-1-IIIb (unselected)): 2.2 nM
EC50 ([5]; selected virus BIC P3 (day 47, 6 nM)): 3.8 nM
EC50 ([5]; selected virus BIC P5 (day 71, 12 nM)): 5.8 nM
EC50 ([5]; selected virus BIC P6 (day 86, 24 nM)): 7.8 nM
EC50 ([5]; selected virus BIC P8 (day 156, 96 nM)): 11.2 nM
EC50 ([5]; selected virus BIC P9 (day 181, 192 nM)): 17.5 nM
EC50 ([5]; selected virus BIC P10 (day 234, 384 nM)): 13.5 nM
EC50 ([5]; selected virus DTG P3Lo (day 59, 6.4 nM)): 2.9 nM
EC50 ([5]; selected virus DTG P4 (day 87, 9.6 nM)): 7.8 nM
EC50 ([5]; selected virus DTG P5 (day 97, 14.4 nM)): 10.6 nM
EC50 ([5]; selected virus DTG P7 (day 139, 32.4 nM)): 21.8 nM
EC50 ([5]; selected virus DTG P9 (day 174, 72.9 nM)): 23.8 nM
EC50 ([5]; selected virus DTG P10 (day 202, 109.4 nM)): 30 nM
EC50 ([5]; selected virus EVG P4 (day 41, 28.8 nM)): 6.5 nM
EC50 ([5]; selected virus EVG P6 (day 56, 115 nM)): 6.8 nM
EC50 ([5]; selected virus EVG P7 (day 67, 230 nM)): 8.9 nM
EC50 ([5]; selected virus EVG P9 (day 94, 922 nM)): 6.8 nM
EC50 ([5]; selected virus EVG P10 (day 119, 1843 nM)): 2.9 nM
EC50 [6]: 53500 nM
EC50 [7]: > 50000 nM
EC50 [8]: > 50000 nM
EC50 [9]: 1.7 ± 0.5 nM
CC50 ([10]; CC50, Activated PBMCs (IL-2/PHA 2 days)): 5700 nM
CC50 ([10]; CC50, Resting PBMCs): 8400 nM
CC50 ([11]; Donor 1): > 100000 nM
CC50 ([11]; Donor 2): > 100000 nM
EC50 [12]: 1.9 ± 0.6 nM
EC50 [13]: > 50000 nM
day postinfection of HIV-1 breakthrough [14]: no virus breakthrough was observed
Frequency of Viral Breakthrough with RAMs [15]: 0%
p24+ Wells [15]: 0/24
EC50 [16]: 1.7 ± 1 nM
EC50 ([17]; Human immunodeficiency virus 1, BAL, PBMC, HIV-1 subtype B isolate BaL, human PBMCs): 0.35 ± 0.12 nM
EC50 ([17]; Human immunodeficiency virus 1, PBMC, HIV-1 subtype A isolate 92RW016, human PBMCs): 0.71 ± 0.26 nM
EC50 ([17]; Human immunodeficiency virus 1, PBMC, HIV-1 subtype A isolate 92UG037, human PBMCs): 1.5 ± 0.6 nM
EC50 ([17]; Human immunodeficiency virus 1, PBMC, HIV-1 subtype B isolate 89BZ_167, human PBMCs): 1 ± 0.5 nM
EC50 ([17]; Human immunodeficiency virus 1, PBMC, HIV-1 subtype B isolate 91US001, human PBMCs): 0.89 ± 0.17 nM
EC50 ([17]; Human immunodeficiency virus 1, PBMC, HIV-1 subtype B isolate 91US004, human PBMCs): 1.2 ± 0.4 nM
EC50 ([17]; Human immunodeficiency virus 1, PBMC, HIV-1 subtype C isolate 93IN905, human PBMCs): 0.15 ± 0.01 nM
EC50 ([17]; Human immunodeficiency virus 1, PBMC, HIV-1 subtype C isolate 98US_MSC5016, human PBMCs): 1.2 ± 0.2 nM
EC50 ([17]; Human immunodeficiency virus 1, PBMC, HIV-1 subtype D isolate 98UG_57128, human PBMCs): 0.33 ± 0.01 nM
EC50 ([17]; Human immunodeficiency virus 1, PBMC, HIV-1 subtype E isolate 96TH_M02138, human PBMCs): 0.51 ± 0.17 nM
EC50 ([17]; Human immunodeficiency virus 1, PBMC, HIV-1 subtype E isolate 96TH_NI1046, human PBMCs): 0.25 ± 0.06 nM
EC50 ([17]; Human immunodeficiency virus 1, PBMC, HIV-1 subtype F isolate 93BR020, human PBMCs): 1.2 ± 0.5 nM
EC50 ([17]; Human immunodeficiency virus 1, PBMC, read-out: mean EC50 against clinical isolates, 14 HIV-1 isolates and one HIV-2 isolate, human PBMCs): 0.81 nM
EC50 ([17]; Human immunodeficiency virus 1, PBMC, read-out: range of EC50s against clinical isolates, 14 HIV-1 isolates and one HIV-2 isolate, human PBMCs): 0.04 to 1.7 nM
